Source: ChEMBL document CHEMBL2218064, “Structure-activity relationship data for chemical series of antagonists of the P2X7 receptor (Supplementary Bioactivity Data for publication CHEMBL1157114)”

target: T1, P2X purinoceptor 7 (Homo sapiens, UniProt Q99572); test: SUPPLEMENTARY: Inhibition of human P2X7 receptor assessed as inhibition of ethidium bromide accumulation. Same assay as CHEMBL1103860
T1 sequence (Q99572 whole entry): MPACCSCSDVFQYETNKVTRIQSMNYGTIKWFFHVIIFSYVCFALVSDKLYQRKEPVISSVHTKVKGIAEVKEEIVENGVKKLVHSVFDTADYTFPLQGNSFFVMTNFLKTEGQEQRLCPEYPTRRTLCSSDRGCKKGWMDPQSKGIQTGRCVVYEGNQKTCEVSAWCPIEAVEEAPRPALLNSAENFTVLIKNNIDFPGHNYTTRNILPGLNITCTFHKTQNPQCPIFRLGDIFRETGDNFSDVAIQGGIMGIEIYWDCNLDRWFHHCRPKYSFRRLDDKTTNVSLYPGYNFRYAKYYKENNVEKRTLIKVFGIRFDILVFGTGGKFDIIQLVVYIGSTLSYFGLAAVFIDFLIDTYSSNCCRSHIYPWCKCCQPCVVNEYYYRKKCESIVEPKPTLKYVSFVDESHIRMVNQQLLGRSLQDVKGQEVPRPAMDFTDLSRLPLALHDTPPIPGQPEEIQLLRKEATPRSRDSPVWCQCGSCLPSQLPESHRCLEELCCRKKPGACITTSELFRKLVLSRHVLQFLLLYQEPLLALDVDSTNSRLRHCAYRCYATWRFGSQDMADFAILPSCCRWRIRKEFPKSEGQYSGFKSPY

Structure (SMILES)	IC50
CCOc1ccc(-n2nc(C)c(CC(=O)NCc3ccc(F)cc3Cl)c2C)cc1	158 nM
O=C(c1cccc(Cl)c1Cl)N1CCn2c(nnc2-c2cccnn2)C1	31.6 nM
O=C(c1ccc(F)cc1Cl)N1CCn2c(nnc2-c2cccnn2)C1	501 nM
Cn1ccc(-c2nnc3n2CCN(C(=O)c2cccc(Cl)c2Cl)C3)n1	6.31 nM
O=C(c1cccc(Cl)c1Cl)N1CCn2c(nnc2-c2ccc[nH]2)C1	2.51 nM
O=C(c1cccc(Cl)c1Cl)N1CCn2c(nnc2-c2cscn2)C1	1 nM
Cn1nccc1-c1nnc2n1CCN(C(=O)c1cccc(C(F)(F)F)c1Cl)C2	15.8 nM
O=C(c1ccc(F)cc1Cl)N1CCn2c(Br)nnc2C1	316 nM
O=C(c1cccc(C(F)(F)F)c1Cl)N1CCn2c(nnc2-c2ccco2)C1	1.58 nM
Cn1nccc1-c1nnc2n1CCN(C(=O)c1cccc(Cl)c1Cl)C2	25.1 nM
O=C(c1ccc(F)cc1Cl)N1CCn2c(Br)cnc2C1	501 nM
O=C(c1cccc(C(F)(F)F)c1F)N1CCn2c(nnc2-c2ccccn2)C1	5.01 nM
O=C(c1ccc(Cl)cc1Cl)N1CCn2c(nnc2-c2cnccn2)C1	3.16 nM
O=C(c1ccc(F)cc1C(F)(F)F)N1CCn2c(nnc2-c2ccccn2)C1	31.6 nM
O=C(c1ccc(Cl)cc1Cl)N1CCn2c(nnc2-c2ccc(F)cn2)C1	12.6 nM
O=C(c1cccc(C(F)(F)F)c1Cl)N1CCn2c(-c3ccc(F)cn3)cnc2C1	3.98 nM
O=C(c1ccc(Cl)cc1Cl)N1CCn2c(nnc2-c2cscn2)C1	2 nM
O=C(c1cccc(Cl)c1Cl)N1CCn2c(nnc2-c2ccc(F)cc2)C1	3.16 nM
O=C(c1cccc(Cl)c1Cl)N1CCn2c(nnc2-c2ccc(F)cc2F)C1	12.6 nM
O=C(c1ccc(F)cc1Cl)N1CCn2c(nc(C(F)(F)F)c2Br)C1	31.6 nM
O=C(c1ccc(Cl)cc1Cl)N1CCn2c(nnc2-c2ccc(F)cc2)C1	15.8 nM
O=C(c1ccc(Cl)cc1Cl)N1CCn2c(nnc2-c2ccc(F)cc2F)C1	100 nM
O=C(c1ccc(Cl)cc1Cl)N1CCn2c(nnc2-c2ccncn2)C1	31.6 nM
O=C(c1ccccc1Cl)N1CCn2c(nnc2-c2cscn2)C1	10 nM
O=C(c1ccc(Cl)c(Cl)c1)N1CCn2c(nnc2-c2cnccn2)C1	31.6 nM

Structure (SMILES)	IC50
O=C(c1ccc(Cl)c(C(F)(F)F)c1)N1CCn2c(nnc2-c2cnccn2)C1	31.6 nM
O=C(c1ccc(F)c(C(F)(F)F)c1)N1CCn2c(nnc2-c2cnccn2)C1	12.6 nM
O=C(c1ccc(F)c(Cl)c1)N1CCn2c(nnc2-c2cnccn2)C1	20 nM
Cc1cc(F)ccc1C(=O)N1CCn2c(nnc2-c2cnccn2)C1	15.8 nM
O=C(c1ccccc1Cl)N1CCn2c(nnc2-c2ccncn2)C1	158 nM
O=C(c1ccccc1Cl)N1CCn2c(nnc2-c2ccc(F)cn2)C1	39.8 nM
O=C(c1ccccc1Cl)N1CCn2c(nnc2-c2ccc(F)cc2)C1	79.4 nM
O=C(c1ccccc1Cl)N1CCn2c(nnc2-c2cnccn2)C1	20 nM
O=C(c1ccccc1Cl)N1CCn2c(nnc2-c2ncccc2F)C1	31.6 nM
O=C(c1ccccc1C(F)(F)F)N1CCn2c(nnc2-c2ccccn2)C1	63.1 nM
O=C(c1ccc(F)c(Cl)c1Cl)N1CCn2c(nnc2-c2cnccn2)C1	2 nM
O=C(c1ccc(Cl)c(F)c1Cl)N1CCn2c(nnc2-c2cnccn2)C1	2 nM
O=C(c1ccc(Cl)c(F)c1Cl)N1CCn2c(nnc2-c2ccncn2)C1	20 nM
O=C(c1ccc(F)cc1Cl)N1CCn2c(nnc2-c2cccc(F)c2)C1	15.8 nM
O=C(c1ccc(F)cc1Cl)N1CCn2c(nnc2-c2ccc(F)c(F)c2)C1	50.1 nM
O=C(c1cccc(C(F)(F)F)c1Cl)N1CCn2c(nc(Cl)c2Br)C1	2.51 nM
O=C(c1cccc(C(F)(F)F)c1Cl)N1CCn2c(nc(Br)c2-c2ccc(F)cc2)C1	31.6 nM
COc1cccc(-c2nnc3n2CCN(C(=O)c2ccc(F)cc2Cl)C3)c1	25.1 nM
O=C(c1ccc(F)cc1Cl)N1CCn2c(nnc2-c2cccc(Cl)c2)C1	12.6 nM
COc1ccccc1-c1nnc2n1CCN(C(=O)c1ccc(F)cc1Cl)C2	158 nM
O=C(c1ccc(F)c(Cl)c1Cl)N1CCn2c(nnc2-c2ccc(F)cn2)C1	1.58 nM
O=C(c1cccc(C(F)(F)F)c1Cl)N1CCn2c(nc(C(F)(F)F)c2-c2ccc(F)cc2)C1	79.4 nM
O=C(c1ccc(Cl)cc1Cl)N1CCn2c(nc(C(F)(F)F)c2-c2ccc(F)cc2)C1	158 nM
O=C(c1ccc(F)cc1Cl)N1CCn2c(nnc2-c2cccc3cccnc23)C1	251 nM
O=C(c1ccc(F)cc1Cl)N1CCn2c(nnc2-c2cccc(Cl)c2Cl)C1	100 nM

Structure (SMILES)	IC50
O=C(c1ccc(F)cc1Cl)N1CCn2c(nnc2-c2cccc(F)c2F)C1	39.8 nM
O=C(c1cccc(C(F)(F)F)c1Cl)N1CCn2c(Cl)cnc2C1	12.6 nM
O=C(c1ccc(F)cc1Cl)N1CCn2c(-c3cnccn3)cnc2C1	3.98 nM
O=C(c1ccc(Cl)cc1Cl)N1CCn2c(Cl)cnc2C1	200 nM
O=C(c1cccc(C(F)(F)F)c1Cl)N1CCn2c(-c3cnccn3)cnc2C1	2 nM
O=C(c1ccc(F)cc1Cl)N1CCn2c(nnc2-c2cccc3cc[nH]c23)C1	31.6 nM
O=C(c1cccc(C(F)(F)F)c1Cl)N1CCn2c(nc(Cl)c2Cl)C1	3.16 nM
O=C(c1ccc(Cl)cc1Cl)N1CCn2c(nc(Cl)c2Cl)C1	39.8 nM
O=C(c1cccc(C(F)(F)F)c1Cl)N1CCn2c(-c3nccs3)cnc2C1	1.58 nM
O=C(c1ccc(F)cc1Cl)N1CCn2c(-c3ccc(F)cn3)cnc2C1	25.1 nM
O=C(c1cccc(C(F)(F)F)c1Cl)N1CCn2c(nnc2C2CC2)C1	31.6 nM
CCCc1nnc2n1CCN(C(=O)c1cccc(C(F)(F)F)c1Cl)C2	25.1 nM
O=C(c1cccc(C(F)(F)F)c1Cl)N1CCn2c(nnc2C2CCCCC2)C1	50.1 nM
Cc1nc(-c2nnc3n2CCN(C(=O)c2ccc(F)cc2Cl)C3)cs1	158 nM
COCCc1nnc2n1CCN(C(=O)c1cccc(C(F)(F)F)c1Cl)C2	100 nM
O=C(c1cccc(C(F)(F)F)c1Cl)N1CCn2c(nnc2-c2ccccc2O)C1	2.51 nM
O=C(c1cccc(C(F)(F)F)c1Cl)N1CCn2c(-c3ncccn3)cnc2C1	1.58 nM
O=C(c1cccc(C(F)(F)F)c1Cl)N1CCn2c(-c3cscn3)cnc2C1	1.26 nM
O=C(c1cccc(C(F)(F)F)c1Cl)N1CCn2c(nnc2C2CCCC2)C1	25.1 nM
Cn1ccnc1-c1nnc2n1CCN(C(=O)c1ccc(F)cc1Cl)C2	316 nM
O=C(c1ccc(F)cc1Cl)N1CCn2c(nnc2-c2cnc(Cl)cn2)C1	200 nM
O=C(c1ccc(Cl)cc1C(F)(F)F)N1CCn2c(nnc2-c2cnccn2)C1	20 nM
Cc1ccc(C(=O)N2CCn3c(nnc3-c3cnccn3)C2)c(C)c1	126 nM
Cc1nn(-c2ccccc2)c(C)c1CC(=O)NCc1ccccc1Br	316 nM
Cc1nn(-c2ccccc2)c(C)c1CC(=O)NCc1cccc(F)c1F	316 nM

Structure (SMILES)	IC50
Cc1nn(-c2ccccc2)c(C)c1CC(=O)NCc1c(F)cccc1Cl	316 nM
Cc1nn(-c2ccccc2)c(C)c1CC(=O)NCc1cc(C(F)(F)F)ccc1Cl	501 nM
Cc1nn(-c2ccccc2)c(C)c1CC(=O)NCc1cc(F)ccc1C(F)(F)F	501 nM
Cc1nn(-c2ccccc2)c(C)c1CC(=O)NCc1c(Cl)cccc1Cl	63.1 nM
Cc1nn(-c2ccccc2)c(C)c1CC(=O)NCc1cc(Cl)ccc1Cl	631 nM
Cc1nn(-c2ccccc2)c(C)c1CC(=O)NCc1ccc(F)cc1C(F)(F)F	158 nM
Cc1nn(-c2ccc(F)cc2F)c(C)c1CC(=O)NCc1ccc(F)cc1Cl	50.1 nM
Cc1nn(-c2cccc(F)c2)c(C)c1CC(=O)NCc1ccc(F)cc1Cl	200 nM
Cc1nn(-c2cccc(Cl)c2)c(C)c1CC(=O)NCc1ccc(F)cc1Cl	316 nM
COc1cccc(-n2nc(C)c(CC(=O)NCc3ccc(F)cc3Cl)c2C)c1	501 nM
Cc1nn(-c2ccccc2F)c(C)c1CC(=O)NCc1ccc(F)cc1Cl	158 nM
Cc1nn(-c2ccccc2Cl)c(C)c1CC(=O)NCc1ccc(F)cc1Cl	100 nM
COc1ccccc1-n1nc(C)c(CC(=O)NCc2ccc(F)cc2Cl)c1C	501 nM
Cc1ccc(-n2nc(C)c(CC(=O)NCc3ccc(F)cc3Cl)c2C)cc1	126 nM
Cc1nn(-c2ccccn2)c(C)c1CC(=O)NCc1ccc(F)cc1Cl	100 nM
Cc1c(CC(=O)NCc2ccc(F)cc2Cl)c(C(C)C)nn1-c1ccccc1	251 nM
Cc1nn(-c2ccccc2)c(C(C)C)c1CC(=O)NCc1ccc(F)cc1Cl	631 nM
Cc1nn(-c2ccc(N3CCCC3=O)cc2)c(C)c1CC(=O)NCc1ccc(F)cc1Cl	63.1 nM
Cc1nn(-c2ccc(C#N)cn2)c(C)c1CC(=O)NCc1ccc(F)cc1Cl	794 nM
Cc1nn(-c2ncc(Cl)cc2Cl)c(C)c1CC(=O)NCc1ccc(F)cc1Cl	200 nM
Cc1nn(-c2ccncc2)c(C)c1CC(=O)NCc1ccc(F)cc1Cl	63.1 nM
Cc1nn(-c2ccc(Cl)cn2)c(C)c1CC(=O)NCc1ccc(F)cc1Cl	251 nM
Cc1nn(-c2nccs2)c(C)c1CC(=O)NCc1ccc(F)cc1Cl	316 nM
Cc1nn(-c2ccccc2)c(C)c1CC(=O)NCc1ccc(Cl)c(Cl)c1	158 nM
Cc1nn(-c2ccccc2)c(C)c1CC(=O)NCc1ccc(F)c(C(F)(F)F)c1	316 nM
